Laboratory results from patent US20150344978A1, “NICOTINE RESISTANT MICROORGANISMS” (priority 2014, published 2015).

What was measured:
[1] = test system: X-PRESS yeast strain
Method: (§1) In the method, the X-PRESS yeast strain was subjected to a number of selection cycles to generate nicotine resistance. First, the X-PRESS yeast strain was cultured in liquid media (YP medium containing yeast extract (5 g/L); peptone (10 g/L)) to which 1% w/v (10 mg/ml) nicotine was added for 72 hr at 27° C. with shaking 200 rpm. […] After 72 hr, 100 μl of the culture was applied to a 1% w/v nicotine YP agar plate and allowed to grow on the plate at 27° C. for another 72 hr. In the next step, a single colony was inoculated into a 1.5% w/v nicotine YP medium solution and incubated for another 72 hr and the entire process was repeated. This process was repeated multiple times with the concentration of nicotine being increased in increments of 0.5% w/v at each cycle. […] In FIGS. 3A & 3B, the yeast strains were inoculated onto a nicotine-containing culture plate (nicotine 50 mg/ml, yeast extract 5 g/L, peptone 10 g/L and agar 15 g/L) and incubated at 27° C. for 3 days.

[2] = test system: nicotine resistant yeast strain
Method: as §1
To ensure the stability of the nicotine resistance trait, an additional 20 generations of the resistant strain were cultured in the 7.5% w/v nicotine nutrient solution. […] This nicotine resistant Saccharomyces cerevisiae yeast strain was deposited on under the terms of the Budapest Treaty on the International Recognition of the Deposit of Microorganisms for the Purposes of Patent Procedure at the American Type Culture Collection (ATCC) in Manassas, Va., USA and bears the Patent Accession No. ______.

[3] = test system: yeast

SMILES: CN1CCCC1c1cccnc1 (centres unmarked) [nicotine]
- effect on growth of X-PRESS yeast in liquid YP medium ([1]; 1% w/v (10 mg/ml) nicotine, 72 hr, 27° C., shaking 200 rpm): inhibited the growth rate, but did not kill the yeast
- growth of X-PRESS yeast on nicotine-containing culture plate ([1]; nicotine 50 mg/ml, yeast extract 5 g/L, peptone 10 g/L, agar 15 g/L, 27° C., 3 days): No yeast growth could be observed
- survival of X-PRESS yeast colonies ([1]; nicotine concentration of 7.5%): no surviving yeast colonies
- growth of nicotine resistant strain in medium [2]: capable of growing
- growth of nicotine resistant yeast [2]: still able to grow
- growth of nicotine resistant yeast on nicotine-containing culture plate [2]: grew well
- less ethanol production expected ([3]; in the presence of 0.5% nicotine): 21%
- less sugar consumption by yeast ([3]; nicotine 5 mg/ml added into fermentation solution (FIG. 1)): 21%
